From ChEMBL document CHEMBL1148480, “Structure-activity studies of orexin a and orexin B at the human orexin 1 and orexin 2 receptors led to orexin 2 receptor selective and orexin 1 receptor preferring ligands” (J Med Chem, 2004)
Non-standard residues stand in square brackets, D forms with d. Residues, ends and D or L forms follow the SMILES beside them. pGlu = O=C1CC[C@@H](C(=O)O)N1

Key:
[1] = Ratio of orexin-1 receptor to orexin-2 receptor in human
Orexin receptor type 2 = molecular target: T1, Orexin receptor type 2 (Homo sapiens, UniProt O43614); experiment: Effective agonist concentration to the human Orexin receptor type 2 was determined using the Xlfit program; type: functional
T1 sequence (O43614 whole entry): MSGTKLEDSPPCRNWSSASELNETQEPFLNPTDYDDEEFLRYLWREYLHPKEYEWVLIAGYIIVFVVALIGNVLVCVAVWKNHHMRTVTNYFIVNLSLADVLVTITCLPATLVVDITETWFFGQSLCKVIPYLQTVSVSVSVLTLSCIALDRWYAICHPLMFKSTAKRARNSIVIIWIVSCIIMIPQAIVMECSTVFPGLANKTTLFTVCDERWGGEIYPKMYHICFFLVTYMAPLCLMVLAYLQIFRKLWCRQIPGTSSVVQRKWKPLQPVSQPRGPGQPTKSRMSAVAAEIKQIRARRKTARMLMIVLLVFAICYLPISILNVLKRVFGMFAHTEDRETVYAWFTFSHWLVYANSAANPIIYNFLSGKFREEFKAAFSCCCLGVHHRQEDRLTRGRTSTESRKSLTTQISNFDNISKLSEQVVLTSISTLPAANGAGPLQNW

[2] = molecular target: T2, Orexin/Hypocretin receptor type 1 (Homo sapiens, UniProt O43613); experiment: Effective agonist concentration to human orexin receptor type 1 determined using the Xlfit program; type: functional
T2 sequence (O43613 whole entry): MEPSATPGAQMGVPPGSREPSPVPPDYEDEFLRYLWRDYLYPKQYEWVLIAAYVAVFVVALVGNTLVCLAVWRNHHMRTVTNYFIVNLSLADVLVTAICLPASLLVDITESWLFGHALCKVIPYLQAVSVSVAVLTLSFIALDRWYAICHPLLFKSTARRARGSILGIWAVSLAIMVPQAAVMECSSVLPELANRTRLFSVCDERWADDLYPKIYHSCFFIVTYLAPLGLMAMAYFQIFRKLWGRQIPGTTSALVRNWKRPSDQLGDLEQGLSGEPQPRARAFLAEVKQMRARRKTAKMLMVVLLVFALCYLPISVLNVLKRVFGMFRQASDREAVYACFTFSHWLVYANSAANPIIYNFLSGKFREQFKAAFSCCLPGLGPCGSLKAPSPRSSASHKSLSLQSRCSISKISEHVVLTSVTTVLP

Compound	Ratio [1]	EC50 (Orexin receptor type 2)	EC50 [2]
CC[C@H](C)[C@H](NC(=O)CNC(=O)[C@H](C)NC(=O)[C@H](C)NC(=O)[C@H](Cc1c[nH]cn1)NC(=O)[C@H](CC(N)=O)NC(=O)CNC(=O)[C@H](C)NC(=O)CNC(=O)[C@H](Cc1c[nH]cn1)NC(=O)[C@H](CC(C)C)NC(=O)[C@H](CC(C)C)NC(=O)[C@H](CCC(=O)O)NC(=O)[C@H](Cc1ccc(O)cc1)NC(=O)[C@H](CC(C)C)NC(=O)[C@H](CCCN=C(N)N)NC(=O)[C@H](CSSC[C@H](NC(=O)[C@@H](N)CO)C(=O)N[C@@H](CCCN=C(N)N)C(=O)N[C@@H](CC(C)C)C(=O)N[C@@H](Cc1ccc(O)cc1)C(=O)N[C@@H](CCC(=O)O)C(=O)N[C@@H](CC(C)C)C(=O)N[C@@H](CC(C)C)C(=O)N[C@@H](Cc1c[nH]cn1)C(=O)NCC(=O)N[C@@H](C)C(=O)NCC(=O)N[C@@H](CC(N)=O)C(=O)N[C@@H](Cc1c[nH]cn1)C(=O)N[C@@H](C)C(=O)N[C@@H](C)C(=O)NCC(=O)N[C@H](C(=O)N[C@@H](CC(C)C)C(=O)N[C@H](C(=O)N[C@@H](CC(C)C)C(=O)O)[C@@H](C)O)[C@@H](C)CC)NC(=O)[C@@H](N)CO)C(=O)N[C@@H](CC(C)C)C(=O)N[C@H](C(=O)N[C@@H](CC(C)C)C(=O)O)[C@@H](C)O	2.9		
CC[C@H](C)[C@H](NC(=O)CNC(=O)[C@H](C)NC(=O)[C@H](C)NC(=O)[C@H](Cc1c[nH]cn1)NC(=O)[C@H](CC(N)=O)NC(=O)CNC(=O)[C@H](CO)NC(=O)[C@H](C)NC(=O)[C@H](CCC(N)=O)NC(=O)[C@H](CC(C)C)NC(=O)[C@H](CC(C)C)NC(=O)[C@H](CCCN=C(N)N)NC(=O)[C@H](CCC(N)=O)NC(=O)[C@H](CC(C)C)NC(=O)[C@H](CCCN=C(N)N)NC(=O)CNC(=O)[C@H](CCC(N)=O)NC(=O)[C@H](CC(C)C)NC(=O)[C@H](C)N)C(=O)N[C@@H](CC(C)C)C(=O)N[C@H](C(=O)N[C@@H](CCSC)C(=O)O)[C@@H](C)O (H-ALQGRLQRLLQASGNHAAGILTM-OH)	5.5		
CC[C@H](C)[C@H](NC(=O)CNC(=O)[C@H](C)NC(=O)[C@H](C)NC(=O)[C@H](Cc1c[nH]cn1)NC(=O)[C@H](CC(N)=O)NC(=O)CNC(=O)[C@H](CO)NC(=O)[C@H](C)NC(=O)[C@H](CCC(N)=O)NC(=O)[C@H](CC(C)C)NC(=O)[C@H](CC(C)C)NC(=O)[C@H](CCCN=C(N)N)NC(=O)[C@H](CCC(N)=O)NC(=O)[C@H](CC(C)C)NC(=O)[C@H](CCCN=C(N)N)NC(=O)CNC(=O)[C@H](C)NC(=O)[C@H](CC(C)C)NC(=O)CN)C(=O)N[C@@H](CC(C)C)C(=O)N[C@H](C(=O)N[C@@H](CCSC)C(=O)O)[C@@H](C)O (H-GLAGRLQRLLQASGNHAAGILTM-OH)	6.8		
CC[C@H](C)[C@H](NC(=O)CNC(=O)[C@H](C)NC(=O)[C@H](C)NC(=O)[C@H](Cc1c[nH]cn1)NC(=O)[C@H](CC(N)=O)NC(=O)CNC(=O)[C@H](CO)NC(=O)[C@H](C)NC(=O)[C@H](CCC(N)=O)NC(=O)[C@H](C)NC(=O)[C@H](CC(C)C)NC(=O)[C@H](CCCN=C(N)N)NC(=O)[C@H](CCC(N)=O)NC(=O)[C@H](CC(C)C)NC(=O)[C@H](CCCN=C(N)N)NC(=O)CNC(=O)[C@H](CCC(N)=O)NC(=O)[C@H](CC(C)C)NC(=O)CN)C(=O)N[C@@H](CC(C)C)C(=O)N[C@H](C(=O)N[C@@H](CCSC)C(=O)O)[C@@H](C)O (H-GLQGRLQRLAQASGNHAAGILTM-OH)	> 430		
CC[C@H](C)[C@H](NC(=O)CNC(=O)[C@H](C)NC(=O)[C@H](C)NC(=O)[C@H](Cc1c[nH]cn1)NC(=O)[C@H](CC(N)=O)NC(=O)CNC(=O)[C@H](CO)NC(=O)[C@H](C)NC(=O)[C@H](C)NC(=O)[C@H](CC(C)C)NC(=O)[C@H](CC(C)C)NC(=O)[C@H](CCCN=C(N)N)NC(=O)[C@H](CCC(N)=O)NC(=O)[C@H](CC(C)C)NC(=O)[C@H](CCCN=C(N)N)NC(=O)CNC(=O)[C@H](CCC(N)=O)NC(=O)[C@H](CC(C)C)NC(=O)CN)C(=O)N[C@@H](CC(C)C)C(=O)N[C@H](C(=O)N[C@@H](CCSC)C(=O)O)[C@@H](C)O (H-GLQGRLQRLLAASGNHAAGILTM-OH)	8.6		
CC[C@H](C)[C@H](NC(=O)CNC(=O)[C@H](C)NC(=O)[C@H](C)NC(=O)[C@H](Cc1c[nH]cn1)NC(=O)[C@H](CC(N)=O)NC(=O)CNC(=O)[C@H](CO)NC(=O)[C@H](C)NC(=O)[C@H](CCC(N)=O)NC(=O)[C@H](CC(C)C)NC(=O)[C@H](CC(C)C)NC(=O)[C@H](CCCN=C(N)N)NC(=O)[C@H](CCC(N)=O)NC(=O)[C@H](CC(C)C)NC(=O)[C@H](CCCN=C(N)N)NC(=O)CNC(=O)[C@H](CCC(N)=O)NC(=O)[C@H](CC(C)C)NC(=O)CN)C(=O)N[C@@H](C)C(=O)N[C@H](C(=O)N[C@@H](CCSC)C(=O)O)[C@@H](C)O (H-GLQGRLQRLLQASGNHAAGIATM-OH)	> 65		
CC[C@H](C)[C@H](NC(=O)CNC(=O)[C@H](C)NC(=O)[C@H](C)NC(=O)[C@H](Cc1c[nH]cn1)NC(=O)[C@H](CC(N)=O)NC(=O)CNC(=O)[C@H](CO)NC(=O)[C@H](C)NC(=O)[C@H](CCC(N)=O)NC(=O)[C@H](CC(C)C)NC(=O)[C@H](CC(C)C)NC(=O)[C@H](CCCN=C(N)N)NC(=O)[C@H](CCC(N)=O)NC(=O)[C@H](CC(C)C)NC(=O)[C@H](CCCN=C(N)N)NC(=O)CNC(=O)[C@H](CCC(N)=O)NC(=O)[C@H](CC(C)C)NC(=O)CN)C(=O)N[C@@H](CC(C)C)C(=O)N1CCC[C@H]1C(=O)N[C@@H](CCSC)C(=O)O (H-GLQGRLQRLLQASGNHAAGILPM-OH)	> 375		
CC[C@H](C)[C@H](NC(=O)CNC(=O)[C@H](C)NC(=O)[C@H](C)NC(=O)[C@H](Cc1cnc[nH]1)NC(=O)[C@H](CC(N)=O)NC(=O)CNC(=O)[C@H](C)NC(=O)CNC(=O)[C@H](Cc1cnc[nH]1)NC(=O)[C@H](CC(C)C)NC(=O)[C@H](CC(C)C)NC(=O)[C@H](CCC(=O)O)NC(=O)[C@H](Cc1ccc(O)cc1)NC(=O)[C@H](CC(C)C)NC(=O)[C@H](CCCNC(=N)N)NC(=O)[C@H](CS)NC(=O)[C@@H](N)CO)C(=O)N[C@@H](CC(C)C)C(=O)N[C@H](C(=O)N[C@@H](CC(C)C)C(=O)O)[C@@H](C)O (H-SCRLYELLHGAGNHAAGILTL-OH)		0.45 µM	1.03 µM
CC[C@H](C)[C@H](NC(=O)CNC(=O)[C@H](C)NC(=O)[C@H](C)NC(=O)[C@H](Cc1c[nH]cn1)NC(=O)[C@H](CC(N)=O)NC(=O)CNC(=O)[C@@H](N)CO)C(=O)N[C@@H](CC(C)C)C(=O)N[C@H](C(=O)N[C@@H](CCSC)C(=O)O)[C@@H](C)O (H-SGNHAAGILTM-OH)		> 1000 µM	> 1000 µM
CC[C@H](C)[C@H](NC(=O)CNC(=O)[C@H](C)NC(=O)[C@H](C)NC(=O)[C@H](Cc1cnc[nH]1)NC(=O)[C@H](CC(N)=O)NC(=O)CNC(=O)[C@H](C)NC(=O)CNC(=O)[C@H](Cc1cnc[nH]1)NC(=O)[C@H](CC(C)C)NC(=O)[C@H](CC(C)C)NC(=O)[C@H](CCC(=O)O)NC(=O)[C@H](Cc1ccc(O)cc1)NC(=O)[C@H](CC(C)C)NC(=O)[C@H](CCCNC(=N)N)NC(=O)[C@H](CS)NC(=O)[C@H](CO)NC(=O)[C@H](CS)NC(=O)[C@@H](N)[C@@H](C)O)C(=O)N[C@@H](CC(C)C)C(=O)N[C@H](C(=O)N[C@@H](CC(C)C)C(=O)O)[C@@H](C)O (H-TCSCRLYELLHGAGNHAAGILTL-OH)		0.38 µM	1.21 µM
CC[C@H](C)[C@H](NC(=O)CNC(=O)[C@H](C)NC(=O)[C@H](C)NC(=O)[C@H](Cc1cnc[nH]1)NC(=O)[C@H](CC(N)=O)NC(=O)CNC(=O)[C@H](C)NC(=O)CNC(=O)[C@H](Cc1cnc[nH]1)NC(=O)[C@H](CC(C)C)NC(=O)[C@H](CC(C)C)NC(=O)[C@H](CCC(=O)O)NC(=O)[C@H](Cc1ccc(O)cc1)NC(=O)[C@H](CC(C)C)NC(=O)[C@H](CCCNC(=N)N)NC(=O)CNC(=O)[C@@H]1CCCN1C(=O)[C@H](CC(=O)O)NC(=O)[C@@H]1CCCN1C(=O)[C@H](CC(C)C)NC(=O)[C@@H]1CCCN1C(=O)[C@@H]1CCC(=O)N1)C(=O)N[C@@H](CC(C)C)C(=O)N[C@H](C(=O)N[C@@H](CC(C)C)C(=O)O)[C@@H](C)O ([pGlu]PLPDPGRLYELLHGAGNHAAGILTL-OH)		0.61 µM	4.52 µM
CC[C@H](C)[C@H](NC(=O)CNC(=O)[C@H](C)NC(=O)[C@H](C)NC(=O)[C@H](Cc1cnc[nH]1)NC(=O)[C@H](C)NC(=O)CNC(=O)[C@H](CO)NC(=O)[C@H](C)NC(=O)[C@H](CCC(N)=O)NC(=O)[C@H](CC(C)C)NC(=O)[C@H](CC(C)C)NC(=O)[C@H](CCCNC(=N)N)NC(=O)[C@H](CCC(N)=O)NC(=O)[C@H](CC(C)C)NC(=O)[C@H](CCCNC(=N)N)NC(=O)CNC(=O)[C@H](CCC(N)=O)NC(=O)[C@H](CC(C)C)NC(=O)CN)C(=O)N[C@@H](CC(C)C)C(=O)N[C@H](C(=O)N[C@@H](CCSC)C(=O)O)[C@@H](C)O (stereo in doubt; form 2)		0.32 µM	2.18 µM
